Assays:
Type in all cases: cell-based
Moraxella catarrhalis = assay: MIC against Gram-negative bacteria: Moraxella catarrhalis
In short: (§1)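 The recombinant human-originated EGF domain proteins were serially diluted two-fold against bacteria at 5×10^5 CFU/mL in LB medium. After shaken incubation at 37° C, the lowest concentration with no bacterial growth was recorded as the MIC.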

Enterobacter cloacae = assay: MIC against Gram-negative bacteria: Enterobacter cloacae
In short: as §1

Proteus vulgaris = assay: MIC against Gram-negative bacteria: Proteus vulgaris
In short: as §1

Klebsiella pneumonia = assay: MIC against Gram-negative bacteria: Klebsiella pneumonia
In short: as §1

E. coli DH5α = assay: Antibacterial activity: MIC and growth curve against E. coli DH5α in 96-well plate; details: minimal inhibitory concentration against E. coli DH5α; 96-well plate, 5×10^5 CFU/mL, 37° C., judged after 8 h
In short: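 Log-phase DH5α (OD600 about 0.5, 37° C, 185 rpm in LB) was pelleted, resuspended in fresh LB and seeded at 5×10^5 CFU/mL with recombinant protein at 50, 25 and 12.5 μg/mL (two-fold series), in triplicate. Plates were shaken at 175 rpm, 37° C, and OD600 was read every 30 min. MIC was the lowest concentration with no growth.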

E. coli BL21 = assay: MIC against Gram-negative bacteria: E. coli BL21
In short: as §1

Proteus mirabilis = assay: MIC against Gram-negative bacteria: Proteus mirabilis
In short: as §1

Serratia marcescens = assay: MIC against Gram-negative bacteria: Serratia marcescens
In short: as §1

Citrobacter diversus = assay: MIC against Gram-negative bacteria: Citrobacter diversus
In short: as §1

Aeromonas hydrophila = assay: MIC against Gram-negative bacteria: Aeromonas hydrophila
In short: as §1

Pseudomonas aeruginosa = assay: MIC against Gram-negative bacteria: Pseudomonas aeruginosa
In short: as §1

[1] = 96-well plate, 5×10^5 CFU/mL, 37° C., 10 h
[2] = Moraxella catarrhalis, 96-well plate, 5×10^5 CFU/mL, 37° C., 10 h
[3] = Enterobacter cloacae, 96-well plate, 5×10^5 CFU/mL, 37° C., 10 h
[4] = Proteus vulgaris, 96-well plate, 5×10^5 CFU/mL, 37° C., 10 h
[5] = Klebsiella pneumonia, 96-well plate, 5×10^5 CFU/mL, 37° C., 10 h
[6] = E. coli BL21, 96-well plate, 5×10^5 CFU/mL, 37° C., 10 h
[7] = Proteus mirabilis, 96-well plate, 5×10^5 CFU/mL, 37° C., 10 h
[8] = Serratia marcescens, 96-well plate, 5×10^5 CFU/mL, 37° C., 10 h
[9] = Citrobacter diversus, 96-well plate, 5×10^5 CFU/mL, 37° C., 10 h
[10] = Aeromonas hydrophila, 96-well plate, 5×10^5 CFU/mL, 37° C., 10 h
[11] = Pseudomonas aeruginosa, 96-well plate, 5×10^5 CFU/mL, 37° C., 10 h

PRT690 (EAEECGILDGCTNGRCVRVPEGFTCRCFDGYRLDMTRMACV; listed as Homo sapiens)
MIC M. catarrhalis (Moraxella catarrhalis; [1]): 50 µg/mL | MIC E. cloacae (Enterobacter cloacae; [1]): 12.5 µg/mL | MIC P. vulgaris (Proteus vulgaris; [1]): 50 µg/mL | MIC K. pneumonia (Klebsiella pneumonia; [1]): 25 µg/mL | MIC (E. coli DH5α): 25 µg/mL | MIC E. coli BL21 (E. coli BL21; [1]): 50 µg/mL | MIC P. mirabilis (Proteus mirabilis; [1]): 12.5 µg/mL | MIC S. marcescens (Serratia marcescens; [1]): 12.5 µg/mL | MIC C. diversus (Citrobacter diversus; [1]): 25 µg/mL | MIC A. hydrophila (Aeromonas hydrophila; [1]): 25 µg/mL | MIC P. aeruginosa (Pseudomonas aeruginosa; [1]): 25 µg/mL

PRT901 (DINECVLSPCRHGASCQNTHGGYRCHCQAGYSGRNCE; listed as Homo sapiens)
MIC (Moraxella catarrhalis; M. catarrhalis, 10 h cultivation at 37° C.): 50 µg/mL | MIC (Enterobacter cloacae; E. cloacae, 10 h cultivation at 37° C.): 25 µg/mL | MIC (Proteus vulgaris; P. vulgaris, 10 h cultivation at 37° C.): 12.5 µg/mL | MIC (Klebsiella pneumonia; K. pneumonia, 10 h cultivation at 37° C.): 50 µg/mL | MIC (E. coli DH5α): 25 µg/mL | MIC (E. coli BL21; E. coli BL21, 10 h cultivation at 37° C.): 25 µg/mL | MIC (Proteus mirabilis; P. mirabilis, 10 h cultivation at 37° C.): 25 µg/mL | MIC (Serratia marcescens; S. marcescens, 10 h cultivation at 37° C.): 25 µg/mL | MIC (Citrobacter diversus; C. diversus, 10 h cultivation at 37° C.): 25 µg/mL | MIC (Aeromonas hydrophila; A. hydrophila, 10 h cultivation at 37° C.): 12.5 µg/mL | MIC (Pseudomonas aeruginosa; P. aeruginosa, 10 h cultivation at 37° C.): 12.5 µg/mL

PRT759 (RVDYCLLSDHGCEYSCVNMDRSFACQCPEGHVLRSDGKTCA; listed as Homo sapiens)
MIC (μg/mL) M. catarrhalis (Moraxella catarrhalis; M. catarrhalis, 10 h cultivation at 37° C., 5×10^5 CFU/mL): 25 µg/mL | MIC (μg/mL) E. cloacae (Enterobacter cloacae; E. cloacae, 10 h cultivation at 37° C., 5×10^5 CFU/mL): 12.5 µg/mL | MIC (μg/mL) P. vulgaris (Proteus vulgaris; P. vulgaris, 10 h cultivation at 37° C., 5×10^5 CFU/mL): 12.5 µg/mL | MIC (μg/mL) K. pneumonia (Klebsiella pneumonia; K. pneumonia, 10 h cultivation at 37° C., 5×10^5 CFU/mL): 12.5 µg/mL | MIC (E. coli DH5α): 25 µg/mL | MIC (μg/mL) E. coli BL21 (E. coli BL21; E. coli BL21, 10 h cultivation at 37° C., 5×10^5 CFU/mL): 12.5 µg/mL | MIC (μg/mL) P. mirabilis (Proteus mirabilis; P. mirabilis, 10 h cultivation at 37° C., 5×10^5 CFU/mL): 12.5 µg/mL | MIC (μg/mL) S. marcescens (Serratia marcescens; S. marcescens, 10 h cultivation at 37° C., 5×10^5 CFU/mL): 25 µg/mL | MIC (μg/mL) C. diversus (Citrobacter diversus; C. diversus, 10 h cultivation at 37° C., 5×10^5 CFU/mL): 12.5 µg/mL | MIC (μg/mL) A. hydrophila (Aeromonas hydrophila; A. hydrophila, 10 h cultivation at 37° C., 5×10^5 CFU/mL): 12.5 µg/mL | MIC (μg/mL) P. aeruginosa (Pseudomonas aeruginosa; P. aeruginosa, 10 h cultivation at 37° C., 5×10^5 CFU/mL): 25 µg/mL

PRT1447 (GCGAGRWGPGCTKECPGCLHGGVCHDHDGECVCPPGFTGTRCE; listed as Homo sapiens)
MIC against M. catarrhalis (Moraxella catarrhalis; Moraxella catarrhalis, 5×10^5 CFU/mL, 10 h cultivation at 37° C.): 50 µg/mL | MIC against E. cloacae (Enterobacter cloacae; Enterobacter cloacae, 5×10^5 CFU/mL, 10 h cultivation at 37° C.): 12.5 µg/mL | MIC against P. vulgaris (Proteus vulgaris; Proteus vulgaris, 5×10^5 CFU/mL, 10 h cultivation at 37° C.): 12.5 µg/mL | MIC against K. pneumonia (Klebsiella pneumonia; Klebsiella pneumonia, 5×10^5 CFU/mL, 10 h cultivation at 37° C.): 12.5 µg/mL | MIC (E. coli DH5α): 100 µg/mL | MIC against E. coli BL21 (E. coli BL21; E. coli BL21, 5×10^5 CFU/mL, 10 h cultivation at 37° C.): 25 µg/mL | MIC against P. mirabilis (Proteus mirabilis; Proteus mirabilis, 5×10^5 CFU/mL, 10 h cultivation at 37° C.): 25 µg/mL | MIC against S. marcescens (Serratia marcescens; Serratia marcescens, 5×10^5 CFU/mL, 10 h cultivation at 37° C.): 25 µg/mL | MIC against C. diversus (Citrobacter diversus; Citrobacter diversus, 5×10^5 CFU/mL, 10 h cultivation at 37° C.): 12.5 µg/mL | MIC against A. hydrophila (Aeromonas hydrophila; Aeromonas hydrophila, 5×10^5 CFU/mL, 10 h cultivation at 37° C.): 50 µg/mL | MIC against P. aeruginosa (Pseudomonas aeruginosa; Pseudomonas aeruginosa, 5×10^5 CFU/mL, 10 h cultivation at 37° C.): 12.5 µg/mL

PRT108 (VKDHCSKHSPCQKGGTCVNMPSGPHCLCPQHLTGNHCQ; listed as Homo sapiens)
MIC (μg/mL) M. catarrhalis (Moraxella catarrhalis; [2]): 50 µg/mL | MIC (μg/mL) E. cloacae (Enterobacter cloacae; [3]): 25 µg/mL | MIC (μg/mL) P. vulgaris (Proteus vulgaris; [4]): 12.5 µg/mL | MIC (μg/mL) K. pneumonia (Klebsiella pneumonia; [5]): 50 µg/mL | MIC (E. coli DH5α): 50 µg/mL | MIC (μg/mL) E. coli BL21 (E. coli BL21; [6]): 12.5 µg/mL | MIC (μg/mL) P. mirabilis (Proteus mirabilis; [7]): 12.5 µg/mL | MIC (μg/mL) S. marcescens (Serratia marcescens; [8]): 12.5 µg/mL | MIC (μg/mL) C. diversus (Citrobacter diversus; [9]): 25 µg/mL | MIC (μg/mL) A. hydrophila (Aeromonas hydrophila; [10]): 12.5 µg/mL | MIC (μg/mL) P. aeruginosa (Pseudomonas aeruginosa; [11]): 25 µg/mL

PRT1334 (PINPCLRKICHPHAHCTYLGPNRHSCTCQEGYRGDGQVCL; listed as Homo sapiens)
MIC against M. catarrhalis (Moraxella catarrhalis; [2]): 25 µg/mL | MIC against E. cloacae (Enterobacter cloacae; [3]): 50 µg/mL | MIC against P. vulgaris (Proteus vulgaris; [4]): 25 µg/mL | MIC against K. pneumonia (Klebsiella pneumonia; [5]): 12.5 µg/mL | MIC (E. coli DH5α): 12.5 µg/mL | MIC against E. coli BL21 (E. coli BL21; [6]): 12.5 µg/mL | MIC against P. mirabilis (Proteus mirabilis; [7]): 100 µg/mL | MIC against S. marcescens (Serratia marcescens; [8]): 25 µg/mL | MIC against C. diversus (Citrobacter diversus; [9]): 50 µg/mL | MIC against A. hydrophila (Aeromonas hydrophila; [10]): 12.5 µg/mL | MIC against P. aeruginosa (Pseudomonas aeruginosa; [11]): 50 µg/mL

Source: US9833497B2, “Human originated EGF domain proteins and use of the same” (CHENGDU SOURCEBIO LIMITED-LIABILITY COMPANY, priority 2013, dated 2017)
